Assay results reported in patent US11331288B2, “Conditioning irradiated tissue for increasing vascularity” (THE BOARD OF TRUSTEES OF THE LELAND STANFORD JUNIOR …, priority 2017, dated 2022).

Legend:
irradiated scalp skin = assay: Dermal thickness of irradiated skin, H&E stained sections; assay type: in vivo, mice; details: after DFO treatment, before fat grafting; saline 256.71±16.76; not significantly less
Procedure: Adult 60-day-old male Crl:NU-Fox1^NU immunocompromised mice were used for experiments in this study. Twelve mice were treated with a total of 30 Gy external beam radiation, delivered as six fractionated doses of 5 Gy each over 12 days, followed by 5 weeks of recovery. An additional six non-irradiated mice were used as healthy controls for laser Doppler analysis (LDA) and skin analysis. Irradiated mice were divided into two treatment groups: a DFO experimental group and saline control group. Following recovery, mice underwent injection of either DFO (1 mg in 100 μl saline) or 100 μl of saline alone beneath the dermis every other day for a total of seven treatments. […] For skin analysis, scalp skin biopsy was harvested from both treatment groups following completion of radiation and then 8 weeks following fat grafting. […] Vascularity was determined with CD31 immunoflourescent staining (1:100 Ab28364; Abcam; Cambridge, Mass. and 1:200 AF547; Thermo Fisher Scientific; Waltham, Mass.) and DAPI counterstaining to visualize cell nuclei. Fluorescent images were obtained using an X-Cite 120 Fluorescence Illumination System (Lumen Dynamics Group, Inc.; Ontario, Canada) at the 20× objective. Quantification of CD31 staining was performed using ImageJ (National Institutes of Health; Bethesda, Md.), with pixel-positive area per high power field measured to determine vascular density (11). […]

irradiated scalp = assay: Laser Doppler analysis of perfusion of irradiated scalp, DFO injected beneath the dermis (Example 1); assay type: in vivo, mice
Procedure: (§1) Adult 60-day-old male Crl:NU-Fox1^NU immunocompromised mice were used for experiments in this study. Twelve mice were treated with a total of 30 Gy external beam radiation, delivered as six fractionated doses of 5 Gy each over 12 days, followed by 5 weeks of recovery. An additional six non-irradiated mice were used as healthy controls for laser Doppler analysis (LDA) and skin analysis. Irradiated mice were divided into two treatment groups: a DFO experimental group and saline control group. Following recovery, mice underwent injection of either DFO (1 mg in 100 μl saline) or 100 μl of saline alone beneath the dermis every other day for a total of seven treatments.
(§2) After irradiation, fat grafting was performed on the irradiated mice. After informed consent was obtained, lipoaspirate was obtained from three healthy female donors, with no other medical co-morbidities under an approved IRB protocol #2188. Lipoaspirate was allowed to settle for 15 minutes for layers to separate by gravity sedimentation, and then oil and blood layers were removed by vacuum aspiration. The remaining fat layer was centrifuged at 1300 rcf for 3 minutes at 4° C. Any remaining oil and blood was again removed and the remaining fat was transferred into 1 cc syringes for injection through a 14-gauge needle. Fat grafting was performed beneath the scalp by creating a subcutaneous tunnel with the needle and then injecting 200 μl of lipoaspirate in retrograde fashion while pulling the needle out.
Laser Doppler Analysis (“LDA”) was performed to measure perfusion at the irradiated site using a Perimed PIM 3 laser Doppler perfusion imager (Datavagen, Sweden). The signal generated by the LDA, laser Doppler perfusion index (LDPI), was used for comparative purposes. LDPI is a product of the blood cell velocity and concentration and is represented by a color spectrum, with black/dark blue representing low perfusion and red representing high perfusion. […]
Five images were taken of each mouse, and the average LDPI of the five images was recorded. […]

[1] = system: inguinal fat pads transplanted to parascapular subcutaneous pockets; details: DFO injected fat grafts; cited from earlier work
[2] = system: fat grafts in irradiated scalp; assay: Fat graft volume retention by micro-CT in DFO preconditioned irradiated scalp (Example 1); assay type: in vivo, mice
Procedure: as §1, §2
Mice were also imaged using a MicroCAT-II in vivo X-Ray micro-CT scanner (Imtek, Inc.; Knoxville, Tenn.) two days after fat graft injection for baseline volume measurements. Fat graft volume retention was then analyzed every two weeks over a total of 8 weeks using microcomputed tomography, and images were reconstructed as three-dimensional surfaces through cubic-spline interpolation. All reconstructions were performed by a single investigator to avoid inter-observer variability.

With `CC(=O)N(O)CCCCCNC(=O)CCC(=O)N(O)CCCCCNC(=O)CCC(=O)N(O)CCCCCN` [DFO, Deferoxamine] the “dermal thickness of irradiated skin” value (irradiated scalp skin) was 242.09±7.22 μm, the “laser Doppler perfusion index at the irradiated scalp” value (irradiated scalp; after four treatments of 1 mg DFO every other day beneath the dermis, 176.70±2.59 after irradiation, 265.23±7.01 pre-radiation baseline, mean±SE) was 205.08±2.30 LDPI and the “laser Doppler perfusion index following fat grafting” value (irradiated scalp; eight weeks following grafting, saline 119.18±4.09, p>0.05) was 127.78±2.29 LDPI. The “laser Doppler perfusion index following fat grafting” value (irradiated scalp; two weeks following injection of fat grafts, saline control 65.72±2.02, p<0.05) was 86.33±2.00 LDPI, the “inflammation and fibrosis in fat grafts” value [1] was “more inflammation and fibrosis” and the “fat graft volume retention” value ([2]; two weeks after fat grafting, saline control 74.03) was 89.24%. For the same molecule, the “fat graft volume retention” value ([2]; week 6 after fat grafting, saline 52.40, p<0.05) was 73.17% and the “fat graft volume retention” value ([2]; week 8 after fat grafting, saline 49.47, p<0.05) was 71.75%.
